IC50 data for 42 molecules are collected here from patent US20260132127A1, “NOVEL SPIRO COMPOUND” (MITSUBISHI TANABE PHARMA CORPORATION, priority 2021, published 2026).

Structures are written as SMILES.

The term IC50 denotes the point on the concentration scale where inhibition reaches its midpoint.

This experiment concerns the target T1, human TRH-DE (Homo sapiens, UniProt Q9UKU6).
T1 construct: expressed in transfected cells; host or cells: Expi 293 cells (transient expression), membrane fraction
T1 sequence (Q9UKU6 1-1069): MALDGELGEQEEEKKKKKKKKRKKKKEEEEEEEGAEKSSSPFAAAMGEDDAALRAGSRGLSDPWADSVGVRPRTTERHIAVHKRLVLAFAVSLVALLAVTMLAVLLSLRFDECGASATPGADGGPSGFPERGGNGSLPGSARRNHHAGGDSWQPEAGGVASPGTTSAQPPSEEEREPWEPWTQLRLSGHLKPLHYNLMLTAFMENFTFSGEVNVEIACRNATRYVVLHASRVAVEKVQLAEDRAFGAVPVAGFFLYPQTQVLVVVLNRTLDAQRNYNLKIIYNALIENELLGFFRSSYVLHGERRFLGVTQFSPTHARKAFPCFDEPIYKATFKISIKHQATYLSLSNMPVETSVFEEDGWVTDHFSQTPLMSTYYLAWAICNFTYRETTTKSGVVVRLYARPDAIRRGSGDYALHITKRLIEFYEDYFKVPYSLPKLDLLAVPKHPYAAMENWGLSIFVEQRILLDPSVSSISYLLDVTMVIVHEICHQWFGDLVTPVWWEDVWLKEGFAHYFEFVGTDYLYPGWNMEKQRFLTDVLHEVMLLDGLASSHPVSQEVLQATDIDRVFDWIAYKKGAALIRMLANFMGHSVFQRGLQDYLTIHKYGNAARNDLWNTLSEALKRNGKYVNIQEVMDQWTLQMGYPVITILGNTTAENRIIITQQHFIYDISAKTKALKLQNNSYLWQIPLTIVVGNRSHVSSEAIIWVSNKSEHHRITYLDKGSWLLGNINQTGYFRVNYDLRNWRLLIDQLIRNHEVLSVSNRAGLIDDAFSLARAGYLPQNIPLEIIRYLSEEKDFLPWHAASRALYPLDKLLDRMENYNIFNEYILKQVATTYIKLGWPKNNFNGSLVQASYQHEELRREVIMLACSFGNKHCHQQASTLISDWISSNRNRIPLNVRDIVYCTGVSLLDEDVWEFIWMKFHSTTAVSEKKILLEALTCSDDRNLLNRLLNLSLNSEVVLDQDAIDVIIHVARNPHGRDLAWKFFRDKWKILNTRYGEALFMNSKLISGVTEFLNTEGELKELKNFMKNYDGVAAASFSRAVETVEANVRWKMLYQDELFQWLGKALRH
The experiment is described as follows: TRH-DE inhibition test (RapidFire MS measurement of product Cyclo (His-Pro)). Format: biochemical. Conditions: membrane fraction of Expi 293 cells expressing human TRH-DE; 10 μM TRH substrate; room temperature, 2 hours; 16-point concentration test. The method, then: The compounds described in “1. […] The enzyme inhibitory activity of each of the compounds was evaluated by measuring the amount of the product Cyclo (His-Pro) of the enzyme reaction using a RapidFire RF 365 HTMS system (manufactured by Agilent Technologies, Inc.) connected to a triple quadrupole mass spectrometer (API 4000, manufactured by SCIEX). A membrane fraction prepared from Expi 293 cells transiently expressing human TRH-DE was used as an enzyme. The membrane fraction was suspended in 4 μg/ml of a reaction buffer (50 mM sodium phosphate (pH 7.4), 25 mM NaCl, 0.01% Triton […], and 200 μM bacitracin) and mixed with the test compound at each concentration. 10 μM […]), which was a substrate, was added, and the mixture was reacted at room temperature for 2 hours. The reaction was stopped in the same amount of a solution of acetonitrile:methanol (1:1) containing 1 μM of the stable isotope Cyclo ([…]) as an internal standard, and the supernatant was collected after centrifugation. In the RapidFire RF 365 HTMS system, a portion of the supernatant was aspirated, loaded onto a Graphic Carbon column (manufactured by Agilent Technologies, Inc.) with a buffer A (water, 0.09% formic acid, 0.01% trifluoroacetic acid) and washed with ultrapure water. Next, washing was performed with acetonitrile. The contents in the column were eluted with a buffer B (80% acetonitrile, 0.09% formic acid, 0.01% trifluoroacetic acid) and injected into a mass spectrometer for analysis. […] The ESI voltage was set to 5,500 V and the temperature was set to 650° C. For the calculation of the inhibition rate, a Ratio value corrected by dividing the product amount by the internal standard amount was used. The inhibition rate (%) was calculated by % Inhibition={1-(Ratio value of sample-Ratio value of blank)/(Ratio value of control-Ratio value of blank)}×100. The IC50 value was calculated from the concentration reactivity test at 16 points.
In turn, `CC1COc2ncccc2C(=O)N1C1CC2(C1)CN(S(=O)(=O)c1ccccc1C(F)(F)F)C2` (racemic) [Example 78] displayed a half-maximal inhibitory concentration (IC50) of 2330 nM. As for `CC1COc2ncccc2C(=O)N1C1CC2(C1)CN(S(=O)(=O)c1ccc(F)cc1)C2` (racemic) [Example 80], the figure is 295 nM.

`CC1COc2ncccc2C(=O)N1C1CC2(C1)CN(S(=O)(=O)c1cccs1)C2` (racemic) [Example 81] displayed an IC50 of 670 nM. The value for `CC1CCc2cc(C(F)(F)F)cnc2C(=O)N1C1CC2(C1)CN(S(=O)(=O)c1ccccc1F)C2` (racemic) [Example 86] was 60 nM; that for `CC1CCc2ncccc2C(=O)N1C1CC2(C1)CN(S(=O)(=O)c1ccccc1F)C2` (racemic) [Example 87] was 49 nM. Molecule `CC1CCc2ncc(F)cc2C(=O)N1C1CC2(C1)CN(S(=O)(=O)c1ccccc1F)C2` (racemic) [Example 88] returned an IC50 of 147 nM. As for `CC1CCc2ncc(C(F)(F)F)cc2C(=O)N1C1CC2(C1)CN(S(=O)(=O)c1ccccc1F)C2` (racemic) [Example 89], the figure is 286 nM; as for `CC1CCc2nc(C(F)(F)F)sc2C(=O)N1C1CC2(C1)CN(S(=O)(=O)c1ccccc1F)C2` (racemic) [Example 92], 12 nM; as for `CC1CCc2nc(C3CC3)sc2C(=O)N1C1CC2(C1)CN(S(=O)(=O)c1ccccc1F)C2` (racemic) [Example 93], 4 nM. As for `CC1CCc2nc(C3(F)CC3)sc2C(=O)N1C1CC2(C1)CN(S(=O)(=O)c1ccccc1F)C2` (racemic) [Example 94], the figure is 4 nM. As for `CC1CCc2sc(C(F)(F)F)nc2C(=O)N1C1CC2(C1)CN(S(=O)(=O)c1ccccc1F)C2` (racemic) [Example 98], the figure is 21 nM; as for `CC1CCc2nc(C3CC3)oc2C(=O)N1C1CC2(C1)CN(S(=O)(=O)c1ccccc1F)C2` (racemic) [Example 102], 6 nM; as for `CC1c2cc(C(F)(F)F)cnc2C(=O)N(C2CC3(C2)CN(S(=O)(=O)c2ccccc2F)C3)C1C` (racemic) [Example 106], 14 nM. The molecule `CC1CCC2CC2C(=O)N1C1CC2(C1)CN(S(=O)(=O)c1ccccc1F)C2` (racemic) [Example 107] returned an IC50 of 18 nM. The value for `CC1C=Cc2cc(C(F)(F)F)cnc2C(=O)N1C1CC2(C1)CN(S(=O)(=O)c1ccccc1F)C2` (racemic) [Example 112] was 32 nM.

Molecule `CC1C=Cc2ncccc2C(=O)N1C1CC2(C1)CN(S(=O)(=O)c1ccccc1F)C2` (racemic) [Example 113] registered an IC50 of 26 nM. As to `CC1C=Cc2ncc(F)cc2C(=O)N1C1CC2(C1)CN(S(=O)(=O)c1ccccc1F)C2` (racemic) [Example 114], the midpoint of inhibition, the IC50, lay at 61 nM. The value for `CC1C=Cc2ncc(C(F)(F)F)cc2C(=O)N1C1CC2(C1)CN(S(=O)(=O)c1ccccc1F)C2` (racemic) [Example 115] was 83 nM.

Consider `CC1C=Cc2nc(C(F)(F)F)sc2C(=O)N1C1CC2(C1)CN(S(=O)(=O)c1ccccc1F)C2` (racemic) [Example 118], for which the IC50 stood at 25 nM.

Molecule `CC1C=Cc2nc(C3CC3)sc2C(=O)N1C1CC2(C1)CN(S(=O)(=O)c1ccccc1F)C2` (racemic) [Example 119] returned an IC50 of 13 nM.

In turn, `CC1C=Cc2nc(C3(F)CC3)sc2C(=O)N1C1CC2(C1)CN(S(=O)(=O)c1ccccc1F)C2` (racemic) [Example 120] gave an IC50 of 11 nM.

Molecule `CC1C=Cc2nc(C3CC3)oc2C(=O)N1C1CC2(C1)CN(S(=O)(=O)c1ccccc1F)C2` (racemic) [Example 129] returned an IC50 of 21 nM. The value for `CC1C=Cc2c(noc2C2CC2)C(=O)N1C1CC2(C1)CN(S(=O)(=O)c1ccccc1F)C2` (racemic) [Example 131] was 32 nM. In turn, `Cc1nc2c(s1)C(=O)N(C1CC3(C1)CN(S(=O)(=O)c1ccccc1F)C3)C(C)CO2` (racemic) [Example 174] displayed a half-maximal inhibitory concentration (IC50) of 19 nM. `CCc1nc2c(s1)C(=O)N(C1CC3(C1)CN(S(=O)(=O)c1ccccc1F)C3)C(C)CO2` (racemic) [Example 177]: the half-maximal inhibitory concentration (IC50) is 18 nM. The value for `CC1COc2nc(C3CC3)sc2C(=O)N1C1CC2(C1)CN(S(=O)(=O)c1ccccc1F)C2` (racemic) [Example 179] was 7 nM. In turn, `COc1ccc2c(n1)CCC(C)N(C1CC3(C1)CN(S(=O)(=O)c1ccccc1F)C3)C2=O` (racemic) [Example 249, 6-[2-(2-fluorophenyl)sulfonyl-2-azaspiro[3.3]heptan-6-yl]-2-methoxy-7-methyl-8,9-dihydro-7H-pyrido[3,2-c]azepin-5-one] showed an IC50 of 112 nM. The value for `CC1CSc2nc(C(F)(F)F)ccc2C(=O)N1C1CC2(C1)CN(S(=O)(=O)c1ccccc1F)C2` (racemic) [Example 259, 4-[2-(2-fluorophenyl)sulfonyl-2-azaspiro[3.3]heptan-6-yl]-3-methyl-8-(trifluoromethyl)-2,3-dihydropyrido[3,2-f][1,4]thiazepin-5-one] was 152 nM; that for `CC1c2ccccc2C(=O)N1C1CC2(C1)CN(S(=O)(=O)c1ccccc1)C2` (racemic) [Example 267] was 664 nM; that for `CCC1c2ccccc2C(=O)N1C1CC2(C1)CN(S(=O)(=O)c1ccccc1)C2` (racemic) [Example 268] was 108 nM. As for `CC1c2cc(F)ccc2C(=O)N1C1CC2(C1)CN(S(=O)(=O)c1ccccc1F)C2` (racemic) [Example 269], the figure is 134 nM. The value for `CC1c2ccc(F)cc2C(=O)N1C1CC2(C1)CN(S(=O)(=O)c1ccccc1F)C2` (racemic) [Example 270] was 189 nM.

`CCC1c2ccccc2C(=O)N1C1CC2(C1)CN(S(=O)(=O)c1ccccc1F)C2` (racemic) [Example 271] returned an IC50 of 24 nM. In turn, `Cc1ccc(F)c(S(=O)(=O)N2CC3(CC(N4C(=O)c5ccccc5C4C)C3)C2)c1` (racemic) [Example 272] came in with an IC50 of 101 nM. The value for `CCC1c2ccccc2C(=O)N1C1CC2(C1)CN(S(=O)(=O)c1cc(C)ccc1F)C2` (racemic) [Example 273] was 63 nM. Molecule `CCC1c2ccccc2C(=O)N1C1CC2(C1)CN(S(=O)(=O)c1cc(OC)ccc1F)C2` (racemic) [Example 274] displayed a half-maximal inhibitory concentration (IC50) of 151 nM. Consider `CC1(O)c2cc(F)ccc2C(=O)N1C1CC2(C1)CN(S(=O)(=O)c1ccccc1F)C2` (racemic) [Example 276], for which the IC50 is 74 nM.

As for `CC1(O)c2ccc(F)cc2C(=O)N1C1CC2(C1)CN(S(=O)(=O)c1ccccc1F)C2` (racemic) [Example 277], the IC50 stood at 102 nM. Take `CC1(O)c2cccnc2C(=O)N1C1CC2(C1)CN(S(=O)(=O)c1ccccc1F)C2` (racemic) [Example 278]: inhibition was half-maximal at 146 nM (IC50).

In turn, `CC1(O)c2cc(F)cnc2C(=O)N1C1CC2(C1)CN(S(=O)(=O)c1ccccc1F)C2` (racemic) [Example 279] returned an IC50 of 112 nM. In the case of `Cc1cnc2c(c1)C(C)(O)N(C1CC3(C1)CN(S(=O)(=O)c1ccccc1F)C3)C2=O` (racemic) [Example 280], the IC50 turned out to be 89 nM.

For `COc1ccc2c(n1)C(=O)N(C1CC3(C1)CN(S(=O)(=O)c1ccccc1F)C3)C2(C)O` (racemic) [Example 281], the IC50 was determined as 120 nM.
